Measured values from US9650407B2, “Reprogramming of cellular adhesion” (The Regents of the University of California, priority 2011, dated 2017).

Experiments:
Jurkat cells = assay: Time-lapse imaging of membrane dynamics of DNA-immobilized cells; assay type: cell-based; conditions: 1 uM latrunculin A; for membrane tubules from the cell surface: subsequent 100 uM nocodazole; for membrane microspikes: 100 uM nocodazole, 10 ng/mL PMA and 1.3 uM ionomycin
Method: Cells incorporating lipid-DNA were allowed to settle onto patterned glass within a PDMS-based flow cell for 30 minutes. Only cells hybridized to the surface via DNA were retained when the surface was washed with PBS. Patterned cells were imaged at 37° C. on a Zeiss Axiovert 200M at 200× or 400× magnification using phase contrast settings.
Cells were incubated with 1 uM latrunculin A either 10 (after nocodazole treatment) or 40 minutes prior to timelapse imaging. Cells were incubated with 10 ng/mL phorbol 12-myristate 13-acetate (PMA) and 1.3 uM ionomycin 4 hours prior to lipid incorporation. Cells were incubated with 100 uM nocodazole, with or without addition of latrunculin, 10 minutes prior to imaging.
Using ImageJ, cells were picked automatically from 20× fields of view and subsequently binarized. For each time point, scanning down the y-axis, the horizontal slice with the greatest width was identified. For each cell, the coefficient of variation was calculated for this set of widths, and this statistic was used to characterize each cell's membrane motility for binning. Error bars signify standard error.

[1] = tested on: heterogeneous MCF10ARas/MCF10AWT microtissues; assay: Emergent phenotypes in heterogeneous MCF10ARas/MCF10AWT microtissues in 3D lrECM culture; assay type: cell-based; conditions: over 24 hr in culture vs DMSO control; LY294002 20 μM, PD325901 200 nM, Sorafenib 10 μM, PIK-90 2 μM; DNase added immediately after sorting
Method: Sorafenib was a gift from Kevan Shokat (UCSF0 and used at 10 μM. PIK-90 was purchased from Calbiochem and used at 2 μM. High activity DNase was purchased from Ambion. Ethidium homodimer-1 was purchased from Invitrogen and used at 1 μM.
The following antibodies were used for western blot: E-cadherin (BD Biosciences), tubulin (Sigma-Aldrich), phospho-Erk and phospho-Akt (Cell Signaling Technology), pan-Ras (Calbiochem), goat anti-mouse-HRP, and goat anti-rabbit-HRP (Thermo Scientific). The following antibodies were used for immunofluorescent staining: GM130, β-catenin (BD Biosciences), α6-integrin, laminin-5 (Millipore), cleaved caspase-3 (Cell Signaling Technology), Ki-67 (Sigma-Aldrich), gp135 (a gift from Keith Mostov, UCSF), Alexa Fluor 488- and 568-conjugated goat anti-mouse, anti-rat, and anti-rabbit antibodies (Invitrogen). F-actin was stained with Alexa Fluor 488- or 568-conjugated phalloidin (Invitrogen). LY294002 and PD325901 (Calbiochem) were used at 20 μM and 200 nM, respectively. TURBO DNase (Invitrogen) was used at a concentration of 10 U/ml.
Time-lapse images of aggregates were acquired on a Zeiss 200M inverted fluorescence microscope equipped with an XCite […] light source and a Hamamatsu camera. Field positions were programmed into Slidebook 5.0 software, and images were acquired at 30 min intervals. Samples were maintained in a humidified chamber at 37° C. and 5% CO2. Phenotypes were scored in Slidebook 5.0 software after acquisition. Microtissues that merged with other microtissues or single cells were not scored due to confounding effects on cell motility.
Apoptotic cells were excluded from phenotype quantification, as judged by cell morphology (FIG. 27, Panels A-E) or uptake of ethidium homodimer-1 (FIG. 28, Panels C, G, and H). Extruding microtis sues contained a single H2B-GFP-expressing cell pushed beyond the phase-bright boundary formed by the surrounding cells. Multicellular protrusions began with a single H2B-GFP-expressing cell that led the translation of the surrounding cells without becoming disconnected from the microtissue. H2B-GFP-expressing cells that broke away from tissues and moved alone were scored as protruding cells due to their altered morphology and motility.

SMILES	membrane tubules from the cell surface (Jurkat cells)	membrane microspikes (Jurkat cells)	formation/frequency of motile multicellular protrusions [1]	frequency of basal extrusions [1]
C/C1=C/C(=O)O[C@@H]2C[C@@H](CC[C@H](C)/C=C\C=C\CC1)O[C@@](O)([C@@H]1CSC(=O)N1)C2 [latruncluin A, latrunculin A]	rapid growth of long tubules	blocked the formation		
COc1ccc2c(c1OC)N=C(NC(=O)c1cccnc1)N1CCN=C21 [PIK-90]			reduced	slightly increasing
COC(=O)Nc1nc2ccc(C(=O)c3cccs3)cc2[nH]1 [nocodazole]	retraction of the membrane tubules	completely blocked		
O=C(NOC[C@H](O)CO)c1ccc(F)c(F)c1Nc1ccc(I)cc1F [PD325901]			blocked	blocked
CNC(=O)c1cc(Oc2ccc(NC(=O)Nc3ccc(Cl)c(C(F)(F)F)c3)cc2)ccn1 [Sorafenib]			blocked	blocked
